Assays:
Type in all cases: in vivo
[1] = system: M. incognita (Root Knot Nematode) larvae; assay: Evaluation of test compounds against M. incognita larvae in microtiter plate wells (movement score); settings: larvae scored for movement after 20-24 hours; further: key: A score of '9' indicates inactive worms with a straight, sticklike morphology; A score of '8' indicates inactive worms with a limp, curled or curved morphology; A score of '7' indicates dead/paralyzed worms after 72 hours
Method: Evaluation of Test Compounds Against M. incognita (Root Knot Nematode)
Newly emerged M. incognita larvae are suspended in S Medium (buffered salt solution) to a concentration of 50-65 worms per 50 μl. 50 μl of the worm suspension are pipetted into microtiter plate wells containing the test compounds. The plates are then covered with plactic plate sealers to reduce loss of volume by evaporation. After 20-24 hours of incubation, the larvae are scored for movement. Wells containing obviously dead/paralyzed larvae are scored as positive. […] A score of “7” indicates dead/paralyzed worms after […].

[2] = system: C. elegans (Bristol strain); assay: Evaluation of test compounds against C. elegans (motility, 96-well plate); set-up: key: 9=complete kill in 4 hours; 8=complete kill in 24 hours; 7=markedly reduced motility in approximately 95% of worms in 24 hours; 0=normal motility, same as controls; settings: motility at 4 and 24 hours
Method: Evaluation of Test Compounds Against C. elegans Cultures of C. elegans (Bristol strain from J. Lewis) are maintained on E. coli lawns on NG Agar Plates at 20° C. New cultures are established weekly. Nematodes for testing are washed from cultures using Na buffer. Compounds are dissolved in 80% acetone. The test material is micropipetted (25 μl) into a single well of a 96-well sterile tissue culture plate and the solvent allowed to evaporate. A freshly prepared volume (50 μl) of C. elegans in Na buffer is micropipetted into each treated well and several control wells per plate. Plates are incubated at 20° C. Observations for efficacy are made under a dissecting microscope at 4 and 24 hours post-immersion. Immediately prior to reading the plate, it is gently tapped to stimulate the movement of the worms. Activity is judged subjectively, but semi-quantitatively, based on the drug effects on motility of the adults and larvae.

[3] = system: Spodoptera eridania, 2nd instar larvae, southern armyworm (SAW); assay: Southern armyworm (SAW) leaf dip test; set-up: key: 0 = no effect; 1 = 10-25% kill; 2 = 26-35% kill; 3 = 36-45% kill; 4 = 46-55% kill; 5 = 56-65% kill; 6 = 66-75% kill; 7 = 76-85% kill; 8 = 86-99% kill; 9 = 100% kill
Method: (§1) Test solutions are prepared by dissolving the test compound in a 35% acetone in water mixture to give a concentration of 10,000 ppm. Subsequent dilutions are made with water as needed.
Spodoptera eridania, 2nd Instar Larvae, Southern Armyworm (SAW)
A Sieva lima bean leaf expanded to 7-8 cm in length is dipped in the test solution with agitation for 3 seconds and allowed to dry in a hood. The leaf is then placed in a 100×10 mm petri dish containing a damp filter paper on the bottom and ten 2nd instar caterpillars. At 5 days, observations are made of mortality, reduced feeding, or any interference with normal molting.

[4] = system: Diabrotica virgifera virgifera Leconte, 2nd instar western corn rootworm (WCR); assay: Western corn rootworm (WCR) soil test; set-up: key: 0 = no effect; 1 = 10-25% kill; 2 = 26-35% kill; 3 = 36-45% kill; 4 = 46-55% kill; 5 = 56-65% kill; 6 = 66-75% kill; 7 = 76-85% kill; 8 = 86-99% kill; 9 = 100% kill
Method: Test solutions are prepared by dissolving the test compound in a 35% acetone in water mixture to give a concentration of 10,000 ppm. Subsequent dilutions are made with water as needed. Diabrotica virgifera virgifera Leconte, 2nd Instar Western Corn Rootworm (WCR) One cc of fine talc is placed in a 30 mL wide-mouth screw-top glass jar. One mL of the appropriate acetone test solution is pipetted onto the talc so as to provide 1.25 mg of active ingredient per jar. The jars are set under a gentle air flow until the acetone is evaporated. The dried talc is loosened, 1 cc of millet seed is added to serve as food for the insects and 25 mL of moist soil is added to each jar. The jar is capped and the contents thoroughly mixed mechanically. Following this, ten 2nd instar rootworms are added to each jar and the jars are loosely capped to allow air exchange for the larvae. The treatments are held for 5 days when mortality counts are made. Missing larvae are presumed dead, since they decompose rapidly and cannot be found. The concentrations of active ingredient used in this test correspond approximately to 50 kg/ha. [table]

[5] = system: Tetranychus urticae (OP-resistant strain), 2-spotted spider mite (TSM); assay: 2-spotted spider mite (TSM) plant dip test; set-up: key: 0 = no effect; 1 = 10-25% kill; 2 = 26-35% kill; 3 = 36-45% kill; 4 = 46-55% kill; 5 = 56-65% kill; 6 = 66-75% kill; 7 = 76-85% kill; 8 = 86-99% kill; 9 = 100% kill; settings: mortality after 2 days
Method: as §1
Tetranychus urticae (OP-resistant strain), 2-spotted Spider Mite (TSM)
Sieva lima bean plants with primary leaves expanded to 7-8 cm are selected and cut back to one plant per pot. A small piece is cut from an infested leaf taken from the main colony and placed on each leaf of the test plants. This is done about 2 hours before treatment to allow the mites to move over to the test plant to lay eggs. The size of the cut, infested leaf is varied to obtain about 100 mites per leaf. At the time of test treatment, the piece of leaf used to transfer the mites is removed and discarded. The newly-infested plants are dipped in the test solution for 3 seconds with agitation and set in the hood to dry. After 2 days, one leaf is removed and mortality counts are made.

[6] = system: Aphis gossypii, cotton aphid (CA); assay: Cotton aphid (CA) cotyledon dip test; set-up: key: 0 = no effect; 1 = 10-25% kill; 2 = 26-35% kill; 3 = 36-45% kill; 4 = 46-55% kill; 5 = 56-65% kill; 6 = 66-75% kill; 7 = 76-85% kill; 8 = 86-99% kill; 9 = 100% kill; settings: mortality after 5 days
Method: Test solutions are prepared by dissolving the test compound in a 35% acetone in water mixture to give a concentration of 10,000 ppm. Subsequent dilutions are made with water as needed. Aphis gossypii, Cotton Aphid (CA) Cotton plants at the cotyledon stage are selected and cut back to one plant per pot. A heavily infested leaf is taken from the main colony and placed on top of each cotyledon. The aphids are allowed to transfer to the host plant overnight. At the time of test treatment, the leaf used to transfer the aphids is removed and discarded. The cotyledons are dipped in the test solution and allowed to dry. After 5 days, mortality counts are made. [table]

[7] = system: Diabrotica undecimpunctata howardi, eggs-southern corn rootworm (SCR-Eggs); assay: Southern corn rootworm eggs (SCR-Eggs) treated diet test; set-up: key: 0 = no effect; 1 = 10-25% kill; 2 = 26-35% kill; 3 = 36-45% kill; 4 = 46-55% kill; 5 = 56-65% kill; 6 = 66-75% kill; 7 = 76-85% kill; 8 = 86-99% kill; 9 = 100% kill; settings: mortality after 7 days
Method: Test solutions are prepared by dissolving the test compound in a 35% acetone in water mixture to give a concentration of 10,000 ppm. Subsequent dilutions are made with water as needed. Spodoptera eridania, Eggs-southern Armyworm and Diabrotica undecimpunctata howardi, Eggs-southern Corn Rootworm (SAW-Eggs) and (SCR-Eggs) Wells containing artificial diet are treated with the test solutions and dried. The appropriate insect eggs are then placed in the wells. The wells are covered with vented, adhesive, clear plastic covers. After 7 days, mortality counts are made. [table]

SMILES | M. incognita (150 ppm) score [1] | Rating Against C. elegans (150 ppm) [2] | SAW (300 ppm) rating [3] | WCR (50 ppm) rating [4] | TSM (300 ppm) rating [5] | CA (300 ppm) rating [6] | SCR Eggs (1000 ppm) rating [7]
CCCCC(CC)COC(=O)CSC(C[N+](=O)[O-])c1ccccc1Cl (racemic) [Example 92] | 0 | 0 | 0 | 5 (5 = 56-65% kill) | 0 | 0 | 0
O=[N+]([O-])CC(SCc1ccccc1)c1ccccc1Cl (racemic) [Example 93] | 0 | 0 | 0 | 0 | 0 | 0 | 0
CCCSC(C[N+](=O)[O-])c1ccccc1Cl (racemic) [Example 94] | 0 | 0 | 0 | 0 | 0 | 0 | 0
C=CCSC(C[N+](=O)[O-])c1ccccc1Cl (racemic) [Example 95] | 0 | 0 | 0 | 4 (4 = 46-55% kill) | 0 | 0 | 0
O=C(O)CSC(C[N+](=O)[O-])c1ccccc1Cl (racemic) [Example 96] | 9 | 9 | 0 | 0 | 0 | 0 | 0
CC(C)c1ccc(C(C[N+](=O)[O-])SCc2ccccc2)cc1 (stereo not drawn) [Example 36] | 0 | 0 | 1 (1 = 10-25% kill) | 0 | 0 | 0 | 7 (7 = 76-85% kill)
CCCSC(C[N+](=O)[O-])c1ccc(C(C)C)cc1 (stereo not drawn) [Example 37] | 0 | 0 | 0 | 0 | 0 | 0 | 0
C=CCSC(C[N+](=O)[O-])c1ccc(C(C)C)cc1 (stereo not drawn) [Example 38] | 0 | 0 | 0 | 0 | 0 | 0 | 9 (9 = 100% kill)
COC(=O)CSC(C[N+](=O)[O-])c1ccccc1F (stereo not drawn) [Example 39] | 9 | 9 | 4 (4 = 46-55% kill) | 8 (8 = 86-99% kill) | 0 | 0 | 0
CCOC(=O)CSC(C[N+](=O)[O-])c1ccc(Cl)cc1 (stereo not drawn) [Example 71] | 0 | 7 | 0 | 0 | 0 | 0 | –
CCCCOC(=O)CSC(C[N+](=O)[O-])c1ccc(Cl)cc1 (stereo not drawn) [Example 72] | 0 | 0 | 0 | 0 | 0 | 0 | –
CC(C)CCCCCOC(=O)CSC(C[N+](=O)[O-])c1ccc(Cl)cc1 (stereo not drawn) [Example 73] | 0 | 0 | 0 | 0 | 0 | 0 | –
CCCCC(CC)COC(=O)CSC(C[N+](=O)[O-])c1ccc(Cl)cc1 (stereo not drawn) [Example 74] | 0 | 0 | 0 | 0 | 0 | 0 | –
O=[N+]([O-])CC(SCc1ccccc1)c1ccc(Cl)cc1 (stereo not drawn) [Example 75] | 0 | 0 | 0 | 0 | 0 | 0 | –
CCCSC(C[N+](=O)[O-])c1ccc(Cl)cc1 (stereo not drawn) [Example 76] | 0 | 7 | 0 | 0 | 0 | 0 | –
O=C(O)CSC(C[N+](=O)[O-])c1ccc(Cl)cc1 (stereo not drawn) [Example 78] | 9 | 7 | 0 | 0 | 0 | 0 | –
COC(=O)CSC(C[N+](=O)[O-])c1ccccc1Cl (stereo not drawn) [Example 88] | 8 | – | 0 | 0 | 0 | 0 | 0

— US6358883B1, “Pesticidal and parasiticidal use of 1-aryl-1-(substituted thio, sulfinyl and sulfonyl)-2-nitroethane compounds” (American Cyanamid Company, priority 1998, dated 2002)
